Experimental data taken from article PMC12356143 (RSC Medicinal Chemistry, 2025).
“And” between values parts separate entries of the source, which are not always exact repeats. Identical values can stand only once.

Assays:
M^pro L50F/E166A/L167F = M^pro L50F/E166A/L167F (Severe acute respiratory syndrome coronavirus 2, UniProt P0DTD1, E3429A/L3313F/L3430F); conditions: for K M / k cat: pH 7.6
[1] = biological target: SARS-CoV-2 M^pro L50F/E166A/L167F (Severe acute respiratory syndrome coronavirus 2, UniProt P0DTD1, E3429A/L3313F/L3430F); type: biochemical

Which results are given for 2-Abz-SVTLQ↓SGY^(NO2)R-OH?
Km (M^pro L50F/E166A/L167F): 320 µM; lower catalytic efficiency of the M^pro triple mutant compared to the WT M^pro (M^pro L50F/E166A/L167F): ~35 times; K M (M^pro L50F/E166A/L167F): 320 µM; k cat (M^pro L50F/E166A/L167F): 0.26 s⁻¹ and 0.26 ± 0.05 s⁻¹

`COc1cccc2[nH]c(C(=O)NC(CC3CC3)C(=O)NC(CC3CCNC3=O)C(O)S(=O)(=O)O)cc12` (centres unmarked) [compound 4] was tested. Which “improvement in inhibition compared to nirmatrelvir” value [1] did it give?
Its value is “approximately 30 fold”.

`O=C(NC(Cc1ccccc1)C(=O)NC(CC1CCNC1=O)C(O)S(=O)(=O)O)OCc1cccc(F)c1` (centres unmarked) [compound 3] was tested. Which “inhibition of L50F/E166A/L167F, result in words” value (“inhibition of L50F/E166A/L167F” for short) [1] did it give?
The value was “inactive”.

How did the “inhibition of L50F/E166A/L167F” value [1] turn out when `CC(C)C[C@H](NC(=O)OCc1cccc(F)c1)C(=O)N[C@@H](Cc1cscn1)C(O)S(=O)(=O)O` (some centres unmarked) [compound 2] was run?
The value was “does not significantly alter binding potency”.

Which Km (M^pro L50F/E166A/L167F) does the source give for 2-Abz-KTSAVLQ↓SGY^(NO2)RKME-OH here?
Its Km is 250 µM.

What about the “K M” value (M^pro L50F/E166A/L167F) of the same compound?
The value was 250 µM.

What about the k cat (M^pro L50F/E166A/L167F) of the same compound?
The k cat was 0.19 ± 0.04 s⁻¹.

For `COc1cccc2[nH]c(C(=O)N3C[C@H](C(F)(F)F)C[C@H]3C(=O)N[C@H](C#N)C[C@@H]3CCNC3=O)cc12` [compound 1], which “inhibition of L50F/E166A/L167F” value [1] is on record?
The value was “inactive”.
